“And” between values parts separate entries of the source, which are not always exact repeats. Equal values may be shown once.
What was measured:
[1] = system: SRIF receptors ([^125I]SRIF-28 binding sites); assay: Ex-vivo [^125I]Tyr^26-SRIF-28 binding in rat cortex and hippocampus after s.c. dosing; design: species or system Wistar rats; details: 60 min
Experimental: Ex-vivo binding was used to determine to whether compound 14 (a potent sst2 receptor selective hydantoin) when applied peripherally to rates can cross the blood brain barrier, as robust behavioral models are not fully characterized and blood-brain penetration models are not routinely available. […] The rats were given saline or drug sub-cutaneously at the indicated dose (in saline) and killed 60 minutes after application with CO2. The brain was removed and placed on ice; the cerebral cortex and hippocampus were dissected out and weighted. […] The homogenate was stored on ice and used immediately or deep frozen (-70° C.) until used (1-3 days). […] The tables list the effects of compound 14 on cortex (Table 6) and hippocampus (Table 7) binding at the doses and times indicated (see also FIGS. 3 and 4). TB=total binding, NS=non specific binding, SB=specific binding. The values are indicated in cpm for individual animals, mean, n=number of animals, sem=standard error of the mean; percent=% specific binding remaining following treatment compared to controls.

sst2 = sst2 (Homo sapiens, UniProt P30874); assay: sst2 cyclase (second messenger studies); assay type: cell-based
Excerpt: In particular the compounds of the invention bind to somatostatin receptors. More particularly they are selective agonists at Somatostatin sst2 receptors, as determined in radioligand binding and second messenger studies (see for example K. Kaupmann et al., FEBS LETTERS 1993, 331, […]).

[2] = molecular target: T1, SS-1 sites (sst2 receptors) (Rattus norvegicus, UniProt P30680); assay: Ex-vivo binding of [^125I]-labeled Tyr^3 analogue of Octreotride (SS-1/sst2) in rat cortex and hippocampus after s.c. dosing; design: species or system Wistar rats; details: for NS non specific binding, individual animals / NS non specific binding, mean / SB specific binding, individual animals / SB specific binding, mean / TB total binding, individual animals / TB total binding, mean / percent specific binding remaining compared to controls: Tyr^3-Oct, 60 min
T1 construct: from tissue; host or cells: Wistar rat cerebral cortex and hippocampus homogenate
Experimental: Ex-vivo binding was used to determine to whether compound 14 (a potent sst2 receptor selective hydantoin) when applied peripherally to rates can cross the blood brain barrier, as robust behavioral models are not fully characterized and blood-brain penetration models are not routinely available. […] The rats were given saline or drug sub-cutaneously at the indicated dose (in saline) and killed 60 minutes after application with CO2. The brain was removed and placed on ice; the cerebral cortex and hippocampus were dissected out and weighted. […] The homogenate was stored on ice and used immediately or deep frozen (-70° C.) until used (1-3 days). […] The filters were dried and counted in a Wallac Beta plate counter. The tables list the effects of compound 14 on cortex (Table 6) and hippocampus (Table 7) binding at the doses and times indicated (see also FIGS. 3 and 4). TB=total binding, NS=non specific binding, SB=specific binding. The values are indicated in cpm for individual animals, mean, n=number of animals, sem=standard error of the mean; percent=% specific binding remaining following treatment compared to controls.

[3] = cortex, SRIF-28 +MgCl-2, 0.3 mg/kg s.c.
[4] = cortex, SRIF-28 +MgCl-2, 1 mg/kg s.c.
[5] = cortex, SRIF-28 +MgCl-2, 3 mg/kg s.c.
[6] = cortex, SRIF-28 +MgCl-2, 10 mg/kg s.c.
[7] = hippocampus, SRIF-28 +MgCl-2, 0.3 mg/kg s.c.
[8] = hippocampus, SRIF-28 +MgCl-2, 1 mg/kg s.c.
[9] = hippocampus, SRIF-28 +MgCl-2, 3 mg/kg s.c.
[10] = hippocampus, SRIF-28 +MgCl-2, 10 mg/kg s.c.

T1 sequence (P30680 whole entry): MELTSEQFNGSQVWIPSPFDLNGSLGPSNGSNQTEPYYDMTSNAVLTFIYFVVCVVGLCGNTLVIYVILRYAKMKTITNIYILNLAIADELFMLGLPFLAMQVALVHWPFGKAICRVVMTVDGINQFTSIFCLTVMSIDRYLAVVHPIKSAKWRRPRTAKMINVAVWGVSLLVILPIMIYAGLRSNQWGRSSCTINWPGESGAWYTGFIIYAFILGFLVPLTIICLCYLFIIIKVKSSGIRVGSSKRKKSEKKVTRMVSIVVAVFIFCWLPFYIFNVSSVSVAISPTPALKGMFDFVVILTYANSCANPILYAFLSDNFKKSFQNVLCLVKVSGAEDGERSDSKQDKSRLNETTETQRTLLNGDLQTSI
sst2, sequence (P30874 whole entry, species assumed): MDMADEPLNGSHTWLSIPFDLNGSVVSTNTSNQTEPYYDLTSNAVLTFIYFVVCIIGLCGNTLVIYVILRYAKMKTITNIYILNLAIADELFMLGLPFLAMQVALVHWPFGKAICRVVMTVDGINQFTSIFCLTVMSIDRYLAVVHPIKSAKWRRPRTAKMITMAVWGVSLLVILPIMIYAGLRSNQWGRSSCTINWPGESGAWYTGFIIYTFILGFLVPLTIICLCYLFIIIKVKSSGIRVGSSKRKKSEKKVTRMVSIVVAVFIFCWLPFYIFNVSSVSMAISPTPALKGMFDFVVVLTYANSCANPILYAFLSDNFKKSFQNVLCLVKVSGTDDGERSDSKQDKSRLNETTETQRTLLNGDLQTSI

Compound: Cc1cccc2c(CC3C(=O)N(CCCCCN)C(=O)N3S(=O)(=O)c3ccc(Oc4ccc(O)cc4)c(C#N)c3)c[nH]c12 (stereo not drawn) [Compound 14]
- NS non specific binding, individual animals [1, 3]: 3058 cpm and 2970 cpm and 3027 cpm
- NS non specific binding, mean [1, 3]: 3018 cpm
- SB specific binding, individual animals [1, 3]: 24318 cpm and 23238 cpm and 23669 cpm
- SB specific binding, mean [1, 3]: 23742 cpm
- TB total binding, individual animals [1, 3]: 27376 cpm and 26208 cpm and 26696 cpm
- TB total binding, mean [1, 3]: 26760 cpm
- percent specific binding remaining compared to controls [1, 3]: 89%
- NS non specific binding, individual animals [1, 4]: 2915 cpm and 3036 cpm and 3191 cpm
- NS non specific binding, mean [1, 4]: 3047 cpm
- SB specific binding, individual animals [1, 4]: 21767 cpm and 23930 cpm and 23905 cpm
- SB specific binding, mean [1, 4]: 23201 cpm
- TB total binding, individual animals [1, 4]: 24682 cpm and 26966 cpm and 27096 cpm
- TB total binding, mean [1, 4]: 26248 cpm
- percent specific binding remaining compared to controls [1, 4]: 95%
- NS non specific binding, individual animals [1, 5]: 2980 cpm and 3016 cpm and 3116 cpm
- NS non specific binding, mean [1, 5]: 3037 cpm
- SB specific binding, individual animals [1, 5]: 22191 cpm and 21992 cpm and 22578 cpm
- SB specific binding, mean [1, 5]: 22254 cpm
- TB total binding, individual animals [1, 5]: 25171 cpm and 25008 cpm and 25694 cpm
- TB total binding, mean [1, 5]: 25291 cpm
- percent specific binding remaining compared to controls [1, 5]: 91%
- NS non specific binding, individual animals [1, 6]: 3070 cpm and 3015 cpm and 3305 cpm
- NS non specific binding, mean [1, 6]: 3130 cpm
- SB specific binding, individual animals [1, 6]: 22730 cpm and 21395 cpm and 23605 cpm
- SB specific binding, mean [1, 6]: 22577 cpm
- TB total binding, individual animals [1, 6]: 25800 cpm and 24410 cpm and 26910 cpm
- TB total binding, mean [1, 6]: 25707 cpm
- percent specific binding remaining compared to controls [1, 6]: 93%
- NS non specific binding, individual animals [1, 7]: 2936 cpm and 2874 cpm and 2753 cpm
- NS non specific binding, mean [1, 7]: 2854 cpm
- SB specific binding, individual animals [1, 7]: 18219 cpm and 18124 cpm and 19319 cpm
- SB specific binding, mean [1, 7]: 18554 cpm
- TB total binding, individual animals [1, 7]: 21155 cpm and 20998 cpm and 22072 cpm
- TB total binding, mean [1, 7]: 21408 cpm
- percent specific binding remaining compared to controls [1, 7]: 112%
- NS non specific binding, individual animals [1, 8]: 2754 cpm and 2528 cpm and 2621 cpm
- NS non specific binding, mean [1, 8]: 2634 cpm
- SB specific binding, individual animals [1, 8]: 17055 cpm and 18516 cpm and 18145 cpm
- SB specific binding, mean [1, 8]: 17905 cpm
- TB total binding, individual animals [1, 8]: 19809 cpm and 21044 cpm and 20766 cpm
- TB total binding, mean [1, 8]: 20540 cpm
- percent specific binding remaining compared to controls [1, 8]: 108%
- NS non specific binding, individual animals [1, 9]: 2532 cpm and 2841 cpm and 2786 cpm
- NS non specific binding, mean [1, 9]: 2720 cpm
- SB specific binding, individual animals [1, 9]: 15758 cpm and 14336 cpm and 15162 cpm
- SB specific binding, mean [1, 9]: 15085 cpm
- TB total binding, individual animals [1, 9]: 18290 cpm and 17117 cpm and 17948 cpm
- TB total binding, mean [1, 9]: 17805 cpm
- percent specific binding remaining compared to controls [1, 9]: 91%
- NS non specific binding, individual animals [1, 10]: 2587 cpm and 2850 cpm and 2711 cpm
- NS non specific binding, mean [1, 10]: 2716 cpm
- SB specific binding, individual animals [1, 10]: 15809 cpm and 14387 cpm and 13715 cpm
- SB specific binding, mean [1, 10]: 14637 cpm
- TB total binding, individual animals [1, 10]: 18398 cpm and 17237 cpm and 18426 cpm
- TB total binding, mean [1, 10]: 17353 cpm
- percent specific binding remaining compared to controls [1, 10]: 88%
- sst2 cyclase pEC50 (sst2): 9.32
- maximal decrease of sst2 (SS-1) binding ([2]; cortex and hippocampus, 10 mg/kg subcutaneous, 60 minutes): about 20%
- NS non specific binding, individual animals ([2]; cortex, 0.3 mg/kg s.c.): 2753 cpm and 2634 cpm and 2685 cpm
- NS non specific binding, mean ([2]; cortex, 0.3 mg/kg s.c.): 2691 cpm
- SB specific binding, individual animals ([2]; cortex, 0.3 mg/kg s.c.): 22427 cpm and 21257 cpm and 23789 cpm
- SB specific binding, mean ([2]; cortex, 0.3 mg/kg s.c.): 22491 cpm
- TB total binding, individual animals ([2]; cortex, 0.3 mg/kg s.c.): 25180 cpm and 23891 cpm and 26474 cpm
- TB total binding, mean ([2]; cortex, 0.3 mg/kg s.c.): 25182 cpm
- percent specific binding remaining compared to controls ([2]; cortex, 0.3 mg/kg s.c.): 98%
- NS non specific binding, individual animals ([2]; cortex, 1 mg/kg s.c.): 2623 cpm and 2705 cpm and 2642 cpm
- NS non specific binding, mean ([2]; cortex, 1 mg/kg s.c.): 2657 cpm
- SB specific binding, individual animals ([2]; cortex, 1 mg/kg s.c.): 19722 cpm and 23378 cpm and 21824 cpm
- SB specific binding, mean ([2]; cortex, 1 mg/kg s.c.): 21641 cpm
- TB total binding, individual animals ([2]; cortex, 1 mg/kg s.c.): 22345 cpm and 26063 cpm and 24466 cpm
- TB total binding, mean ([2]; cortex, 1 mg/kg s.c.): 24298 cpm
- percent specific binding remaining compared to controls ([2]; cortex, 1 mg/kg s.c.): 94%
- NS non specific binding, individual animals ([2]; cortex, 3 mg/kg s.c.): 2519 cpm and 2511 cpm and 2559 cpm
- NS non specific binding, mean ([2]; cortex, 3 mg/kg s.c.): 2530 cpm
- SB specific binding, individual animals ([2]; cortex, 3 mg/kg s.c.): 20444 cpm and 19624 cpm and 21700 cpm
- SB specific binding, mean ([2]; cortex, 3 mg/kg s.c.): 20658 cpm
- TB total binding, individual animals ([2]; cortex, 3 mg/kg s.c.): 22963 cpm and 22335 cpm and 24259 cpm
- TB total binding, mean ([2]; cortex, 3 mg/kg s.c.): 23186 cpm
- percent specific binding remaining compared to controls ([2]; cortex, 3 mg/kg s.c.): 90%
- NS non specific binding, individual animals ([2]; cortex, 10 mg/kg s.c.): 2527 cpm and 2575 cpm and 2740 cpm
- NS non specific binding, mean ([2]; cortex, 10 mg/kg s.c.): 2614 cpm
- SB specific binding, individual animals ([2]; cortex, 10 mg/kg s.c.): 19525 cpm and 18340 cpm and 19640 cpm
- SB specific binding, mean ([2]; cortex, 10 mg/kg s.c.): 19168 cpm
- TB total binding, individual animals ([2]; cortex, 10 mg/kg s.c.): 22052 cpm and 20915 cpm and 22380 cpm
- TB total binding, mean ([2]; cortex, 10 mg/kg s.c.): 21782 cpm
- percent specific binding remaining compared to controls ([2]; cortex, 10 mg/kg s.c.): 84%
- NS non specific binding, individual animals ([2]; hippocampus, 0.3 mg/kg s.c.): 2116 cpm and 2294 cpm and 2092 cpm
- NS non specific binding, mean ([2]; hippocampus, 0.3 mg/kg s.c.): 2167 cpm
- SB specific binding, individual animals ([2]; hippocampus, 0.3 mg/kg s.c.): 12566 cpm and 13303 cpm and 16338 cpm
- SB specific binding, mean ([2]; hippocampus, 0.3 mg/kg s.c.): 14069 cpm
- TB total binding, individual animals ([2]; hippocampus, 0.3 mg/kg s.c.): 14682 cpm and 15597 cpm and 18430 cpm
- TB total binding, mean ([2]; hippocampus, 0.3 mg/kg s.c.): 16238 cpm
- percent specific binding remaining compared to controls ([2]; hippocampus, 0.3 mg/kg s.c.): 113%
- NS non specific binding, individual animals ([2]; hippocampus, 1 mg/kg s.c.): 2144 cpm and 1953 cpm and 1913 cpm
- NS non specific binding, mean ([2]; hippocampus, 1 mg/kg s.c.): 2003 cpm
- SB specific binding, individual animals ([2]; hippocampus, 1 mg/kg s.c.): 12048 cpm and 15010 cpm and 14100 cpm
- SB specific binding, mean ([2]; hippocampus, 1 mg/kg s.c.): 13719 cpm
- TB total binding, individual animals ([2]; hippocampus, 1 mg/kg s.c.): 14192 cpm and 16963 cpm and 16013 cpm
- TB total binding, mean ([2]; hippocampus, 1 mg/kg s.c.): 15723 cpm
- percent specific binding remaining compared to controls ([2]; hippocampus, 1 mg/kg s.c.): 110%
- NS non specific binding, individual animals ([2]; hippocampus, 3 mg/kg s.c.): 1859 cpm and 1984 cpm and 1959 cpm
- NS non specific binding, mean ([2]; hippocampus, 3 mg/kg s.c.): 1934 cpm
- SB specific binding, individual animals ([2]; hippocampus, 3 mg/kg s.c.): 11172 cpm and 9232 cpm and 10980 cpm
- SB specific binding, mean ([2]; hippocampus, 3 mg/kg s.c.): 10461 cpm
- TB total binding, individual animals ([2]; hippocampus, 3 mg/kg s.c.): 13031 cpm and 11216 cpm and 12939 cpm
- TB total binding, mean ([2]; hippocampus, 3 mg/kg s.c.): 12395 cpm
- percent specific binding remaining compared to controls ([2]; hippocampus, 3 mg/kg s.c.): 84%
- NS non specific binding, individual animals ([2]; hippocampus, 10 mg/kg s.c.): 1886 cpm and 2078 cpm and 2037 cpm
- NS non specific binding, mean ([2]; hippocampus, 10 mg/kg s.c.): 2000 cpm
- SB specific binding, individual animals ([2]; hippocampus, 10 mg/kg s.c.): 11059 cpm and 10041 cpm and 8937 cpm
- SB specific binding, mean ([2]; hippocampus, 10 mg/kg s.c.): 10012 cpm
- TB total binding, individual animals ([2]; hippocampus, 10 mg/kg s.c.): 12945 cpm and 12119 cpm and 10974 cpm
- TB total binding, mean ([2]; hippocampus, 10 mg/kg s.c.): 12013 cpm
- percent specific binding remaining compared to controls ([2]; hippocampus, 10 mg/kg s.c.): 80%

From patent publication US20040019092A1, “Non-peptide somatostatin receptor ligands” (priority 2001, published 2004)
